Laboratory results reported in patent publication US8158792B2, “Spiropiperidines for use as tryptase inhibitors” (Janssen Pharmaceutica N.V., priority 2007, dated 2012).

target: human lung tryptase; assay: β-Tryptase In-Vitro Enzyme Assay; format: biochemical; settings: human lung tryptase 1 nM, substrate H-D-HHT-Ala-Arg-pNa 500 μM, pH 7.4, room temperature
Description: The β-tryptase assay was conducted with human lung tryptase (Cortex Biochem #CP3033) in an aqueous buffer (10 mM Tris, 10 mM Hepes, 150 mM NaCl, 0.1% PEG 8000, pH 7.4) using the chromogenic substrate H-D-HHT-Ala-Arg-pNa. […] Percent inhibition was calculated by comparing the initial reaction velocity of samples without inhibitor to those with inhibitor. The initial reaction velocities were analyzed using Microsoft Excel.

Row | Compound | IC50 [nM]
1 | NCc1ccc2c(c1)C1(CCN(C(=O)c3ccc4ncsc4c3)CC1)CO2 [Cpd 16, 1-benzothiazol-6-ylcarbonyl-5′-aminomethyl-spiro[piperidine-4,3′-(2H)-benzo[b]furan]] | 430
2 | NCc1ccc2c(c1)C1(CCN(C(=O)c3ccc(-n4cc(-c5nc6ccccc6o5)cn4)cc3)CC1)CO2 [Cpd 17, 1-{4-[(4-benzoxazol-2-yl)-pyrazol-1-yl]-phenyl}carbonyl-5′-aminomethyl-spiro[piperidine-4,3′-(2H)-benzo[b]furan]] | 290
3 | NCc1ccc2c(c1)C1(CCN(C(=O)c3cccc(NS(=O)(=O)c4ccccc4)c3)CC1)CO2 [Cpd 18, 1-(3-phenylsulfonylamino-phenyl)carbonyl-5′-aminomethyl-spiro[piperidine-4,3′-(2H)-benzo[b]furan]] | 3300
4 | NCc1ccc2c(c1)C1(CCN(C(=O)c3cccc(NC(=O)Cc4cccs4)c3)CC1)CO2 [Cpd 19, 1-(3-thien-2-ylmethylcarbonylamino-phenyl)carbonyl-5′-aminomethyl-spiro[piperidine-4,3′-(2H)-benzo[b]furan]] | 560
5 | NCc1ccc2c(c1)C1(CCN(C(=O)c3cccc(-c4ccc5c(c4)OCO5)c3)CC1)CO2 [Cpd 20, 1-(3-benzodioxol-5-yl-phenyl)carbonyl-5′-aminomethyl-spiro[piperidine-4,3′-(2H)-benzo[b]furan]] | 140
6 | NCc1ccc2c(c1)C1(CCN(C(=O)c3cccc(Sc4ncc(Cl)cn4)c3)CC1)CO2 [Cpd 21, 1-[3-(5-chloro-pyrimidin-2-yl)thiophenyl]carbonyl-5′-aminomethyl-spiro[piperidine-4,3′-(2H)-benzo[b]furan]] | 510
7 | NCc1ccc2c(c1)C1(CCN(C(=O)c3ccc(C(F)(F)F)o3)CC1)CO2 [Cpd 22, 1-(5-trifluoromethyl-furan-2-yl)carbonyl-5′-aminomethyl-spiro[piperidine-4,3′-(2H)-benzo[b]furan]] | 2100
8 | NCc1ccc2c(c1)C1(CCN(C(=O)c3ccc(Sc4ccccc4)o3)CC1)CO2 [Cpd 23, 1-[(5-phenylthio)-furan-2-yl]carbonyl-5′-aminomethyl-spiro[piperidine-4,3′-(2H)-benzo[b]furan]] | 90
9 | Cc1ccc(C(=O)N2CCC3(CC2)COc2ccc(CN)cc23)cc1C [Cpd 24, 1-(3,4-dimethyl-phenyl)carbonyl-5′-aminomethyl-spiro[piperidine-4,3′-(2H)-benzo[b]furan]] | 150
10 | Cc1cc(C(=O)N2CCC3(CC2)COc2ccc(CN)cc23)ccc1Cl [Cpd 25, 1-(3-methyl-4-chloro-phenyl)carbonyl-5′-aminomethyl-spiro[piperidine-4,3′-(2H)-benzo[b]furan]] | 140
11 | NCc1ccc2c(c1)C1(CCN(C(=O)c3ccc(F)c(F)c3)CC1)CO2 [Cpd 26, 1-(3,4-difluoro-phenyl)carbonyl-5′-aminomethyl-spiro[piperidine-4,3′-(2H)-benzo[b]furan]] | 230
12 | NCc1ccc2c(c1)C1(CCN(C(=O)c3ccc(F)c(Cl)c3)CC1)CO2 [Cpd 27, 1-(3-chloro-4-fluoro-phenyl)carbonyl-5′-aminomethyl-spiro[piperidine-4,3′-(2H)-benzo[b]furan]] | 34
13 | COc1ccc(C(=O)N2CCC3(CC2)COc2ccc(CN)cc23)cc1Cl [Cpd 28, 1-(3-chloro-4-methoxy-phenyl)carbonyl-5′-aminomethyl-spiro[piperidine-4,3′-(2H)-benzo[b]furan]] | 120
14 | NCc1ccc2c(c1)C1(CCN(C(=O)c3cccc(Br)c3)CC1)CO2 [Cpd 29, 1-(3-bromo-phenyl)carbonyl-5′-aminomethyl-spiro[piperidine-4,3′-(2H)-benzo[b]furan]] | 130
15 | Cc1cc(C(=O)N2CCC3(CC2)COc2ccc(CN)cc23)ccc1Br [Cpd 30, 1-(3-methyl-4-bromo-phenyl)carbonyl-5′-aminomethyl-spiro[piperidine-4,3′-(2H)-benzo[b]furan]] | 140
16 | NCc1ccc2c(c1)C1(CCN(C(=O)c3ccc(F)c(Br)c3)CC1)CO2 [Cpd 31, 1-(3-bromo-4-fluoro-phenyl)carbonyl-5′-aminomethyl-spiro[piperidine-4,3′-(2H)-benzo[b]furan]] | 55
17 | COc1ccc(C(=O)N2CCC3(CC2)COc2ccc(CN)cc23)cc1Br [Cpd 32, 1-(3-bromo-4-methoxy-phenyl)carbonyl-5′-aminomethyl-spiro[piperidine-4,3′-(2H)-benzo[b]furan]] | 41
18 | NCc1ccc2c(c1)C1(CCN(C(=O)c3ccc(Br)c([N+](=O)[O-])c3)CC1)CO2 [Cpd 33, 1-(3-nitro-4-bromo-phenyl)carbonyl-5′-aminomethyl-spiro[piperidine-4,3′-(2H)-benzo[b]furan]] | 430
19 | NCc1ccc2c(c1)C1(CCN(C(=O)c3ccc(Cl)c(I)c3)CC1)CO2 [Cpd 34, 1-(3-iodo-4-chloro-phenyl)carbonyl-5′-aminomethyl-spiro[piperidine-4,3′-(2H)-benzo[b]furan]] | 20
20 | NCc1ccc2c(c1)C1(CCN(C(=O)c3ccc(C#Cc4ccccc4F)o3)CC1)CO2 [Cpd 35, 1-[5-(2-fluoro-phenylethynyl)-furan-2-yl]carbonyl-5′-aminomethyl-spiro[piperidine-4,3′-(2H)-benzo[b]furan]] | 4.3
21 | NCc1ccc2c(c1)C1(CCN(C(=O)c3ccccc3)CC1)CO2 [Cpd 36, 1-phenylcarbonyl-5′-aminomethyl-spiro[piperidine-4,3′-(2H)-benzo[b]furan]] | 820
22 | NCc1ccc2c(c1)C1(CCN(C(=O)C3CCCCC3)CC1)CO2 [Cpd 37, 1-cyclohexylcarbonyl-5′-aminomethyl-spiro[piperidine-4,3′-(2H)-benzo[b]furan]] | 730

Next, values leading:

Row | IC50 [nM] | Compound
23 | 650 | C[C@H]1CC[C@H](C(=O)N2CCC3(CC2)COc2ccc(CN)cc23)CC1 [Cpd 38, 1-(trans-4-methyl-cyclohexyl)carbonyl-5′-aminomethyl-spiro[piperidine-4,3′-(2H)-benzo[b]furan]]
24 | 3700 | NCc1ccc2c(c1)C1(CCN(C(=O)c3cccc(Cl)c3)CC1)CO2 [Cpd 39, 1-(3-chloro-phenyl)carbonyl-5′-aminomethyl-spiro[piperidine-4,3′-(2H)-benzo[b]furan]]
25 | 250 | COc1ccc(C(=O)N2CCC3(CC2)COc2ccc(CN)cc23)cc1OC [Cpd 40, 1-(3,4-dimethoxy-phenyl)carbonyl-5′-aminomethyl-spiro[piperidine-4,3′-(2H)-benzo[b]furan]]
26 | 470 | Cc1cccc(C(=O)N2CCC3(CC2)COc2ccc(CN)cc23)c1 [Cpd 41, 1-(3-methyl-phenyl)carbonyl-5′-aminomethyl-spiro[piperidine-4,3′-(2H)-benzo[b]furan]]
27 | 360 | NCc1ccc2c(c1)C1(CCN(C(=O)c3cccc(F)c3)CC1)CO2 [Cpd 42, 1-(3-fluoro-phenyl)carbonyl-5′-aminomethyl-spiro[piperidine-4,3′-(2H)-benzo[b]furan]]
28 | 250 | NCc1ccc2c(c1)C1(CCN(C(=O)c3ccc(F)cc3)CC1)CO2 [Cpd 43, 1-(4-fluoro-phenyl)carbonyl-5′-aminomethyl-spiro[piperidine-4,3′-(2H)-benzo[b]furan]]
29 | 230 | NCc1ccc2c(c1)C1(CCN(C(=O)c3ccc(Cl)cc3)CC1)CO2 [Cpd 44, 1-(4-chloro-phenyl)carbonyl-5′-aminomethyl-spiro[piperidine-4,3′-(2H)-benzo[b]furan]]
30 | 220 | CSc1ccc(C(=O)N2CCC3(CC2)COc2ccc(CN)cc23)cc1 [Cpd 45, 1-(4-methylthio-phenyl)carbonyl-5′-aminomethyl-spiro[piperidine-4,3′-(2H)-benzo[b]furan]]
31 | 110 | NCc1ccc2c(c1)C1(CCN(C(=O)c3ccc(Cl)c(F)c3)CC1)CO2 [Cpd 46, 1-(3-fluoro-4-chloro-phenyl)carbonyl-5′-aminomethyl-spiro[piperidine-4,3′-(2H)-benzo[b]furan]]
32 | 820 | NCc1ccc2c(c1)C1(CCN(C(=O)c3cccc(C(F)(F)F)c3)CC1)CO2 [Cpd 47, 1-(3-trifluoromethyl-phenyl)carbonyl-5′-aminomethyl-spiro[piperidine-4,3′-(2H)-benzo[b]furan]]
33 | 16 | NCc1ccc2c(c1)C1(CCN(C(=O)c3cccc(I)c3)CC1)CO2 [Cpd 48, 1-(3-iodo-phenyl)carbonyl-5′-aminomethyl-spiro[piperidine-4,3′-(2H)-benzo[b]furan]]
34 | 130 | NCc1ccc2c(c1)C1(CCN(C(=O)c3ccc(I)cc3)CC1)CO2 [Cpd 49, 1-(4-iodo-phenyl)carbonyl-5′-aminomethyl-spiro[piperidine-4,3′-(2H)-benzo[b]furan]]
35 | 36 | Cc1ccc(C(=O)N2CCC3(CC2)COc2ccc(CN)cc23)cc1I [Cpd 50, 1-(3-iodo-4-methyl-phenyl)carbonyl-5′-aminomethyl-spiro[piperidine-4,3′-(2H)-benzo[b]furan]]
36 | 190 | Cc1cc(C(=O)N2CCC3(CC2)COc2ccc(CN)cc23)ccc1I [Cpd 51, 1-(3-methyl-4-iodo-phenyl)carbonyl-5′-aminomethyl-spiro[piperidine-4,3′-(2H)-benzo[b]furan]]
37 | 22 | COc1ccc(C(=O)N2CCC3(CC2)COc2ccc(CN)cc23)cc1I [Cpd 52, 1-(3-iodo-4-methoxy-phenyl)carbonyl-5′-aminomethyl-spiro[piperidine-4,3′-(2H)-benzo[b]furan]]
38 | 870 | COc1cccc(C(=O)N2CCC3(CC2)COc2ccc(CN)cc23)c1 [Cpd 53, 1-(3-methoxy-phenyl)carbonyl-5′-aminomethyl-spiro[piperidine-4,3′-(2H)-benzo[b]furan]]
39 | 750 | COc1ccc(C(=O)N2CCC3(CC2)COc2ccc(CN)cc23)cc1 [Cpd 54, 1-(4-methoxy-phenyl)carbonyl-5′-aminomethyl-spiro[piperidine-4,3′-(2H)-benzo[b]furan]]
40 | 1000 | CN(C)c1ccc(C(=O)N2CCC3(CC2)COc2ccc(CN)cc23)cc1 [Cpd 55, 1-(4-dimethylamino-phenyl)carbonyl-5′-aminomethyl-spiro[piperidine-4,3′-(2H)-benzo[b]furan]]
